According to ChEMBL document CHEMBL1148660, “Identification of an indole series of prostaglandin D2 receptor antagonists” (Bioorg Med Chem Lett, 2006):

Columns and labels:
[1] = biological target: Prostaglandin E2 receptor EP2 subtype (Homo sapiens, UniProt P43116); test: Binding affinity to EP2 receptor
[2] = biological target: T1, Prostaglandin E2 receptor EP3 subtype (Homo sapiens, UniProt P43115); test: Binding affinity to EP3 receptor
T1 sequence (P43115 whole entry): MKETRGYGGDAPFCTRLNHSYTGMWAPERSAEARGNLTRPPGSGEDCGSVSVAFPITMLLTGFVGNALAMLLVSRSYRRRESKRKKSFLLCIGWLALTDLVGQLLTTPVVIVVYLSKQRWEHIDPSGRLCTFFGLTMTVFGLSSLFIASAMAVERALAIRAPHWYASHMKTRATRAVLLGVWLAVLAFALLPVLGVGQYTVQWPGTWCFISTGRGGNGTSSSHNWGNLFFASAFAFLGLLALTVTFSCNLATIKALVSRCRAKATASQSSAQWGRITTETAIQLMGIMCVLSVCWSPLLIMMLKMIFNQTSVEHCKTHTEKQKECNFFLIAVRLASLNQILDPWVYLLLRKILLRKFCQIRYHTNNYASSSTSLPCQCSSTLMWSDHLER

[3] = biological target: Prostaglandin E2 receptor EP4 subtype (Homo sapiens, UniProt P35408); test: Binding affinity to EP4 receptor
Prostaglandin E2 receptor EP4 subtype, sequence (P35408 whole entry): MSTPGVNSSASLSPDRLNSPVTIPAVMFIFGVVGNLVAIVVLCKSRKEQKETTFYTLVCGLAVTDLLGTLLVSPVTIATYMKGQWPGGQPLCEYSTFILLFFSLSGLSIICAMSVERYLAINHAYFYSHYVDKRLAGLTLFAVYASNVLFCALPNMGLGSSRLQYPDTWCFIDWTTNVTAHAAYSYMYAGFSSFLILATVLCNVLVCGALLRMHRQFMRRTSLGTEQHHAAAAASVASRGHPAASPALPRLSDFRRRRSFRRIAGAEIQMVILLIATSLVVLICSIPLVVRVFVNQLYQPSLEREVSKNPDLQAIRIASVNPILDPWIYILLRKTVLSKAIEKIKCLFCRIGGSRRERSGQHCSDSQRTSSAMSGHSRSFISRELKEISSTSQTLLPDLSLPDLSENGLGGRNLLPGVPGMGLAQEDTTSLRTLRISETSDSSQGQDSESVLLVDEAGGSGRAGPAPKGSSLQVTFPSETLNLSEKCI

[4] = biological target: Prostaglandin F2-alpha receptor (Homo sapiens, UniProt P43088); test: Binding affinity to FP receptor
Prostaglandin F2-alpha receptor, sequence (P43088 whole entry): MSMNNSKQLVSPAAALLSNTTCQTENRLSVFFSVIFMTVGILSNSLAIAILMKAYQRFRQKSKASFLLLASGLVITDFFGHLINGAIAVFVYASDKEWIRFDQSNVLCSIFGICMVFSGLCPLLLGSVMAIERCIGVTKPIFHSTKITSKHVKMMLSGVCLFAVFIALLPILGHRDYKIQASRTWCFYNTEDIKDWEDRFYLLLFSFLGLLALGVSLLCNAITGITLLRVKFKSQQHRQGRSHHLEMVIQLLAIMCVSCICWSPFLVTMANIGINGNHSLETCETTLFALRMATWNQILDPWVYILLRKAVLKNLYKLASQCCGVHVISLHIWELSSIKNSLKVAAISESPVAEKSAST

Prostacyclin receptor = Prostacyclin receptor (Homo sapiens, UniProt P43119); test: Binding affinity to IP receptor
Prostacyclin receptor, sequence (P43119 whole entry): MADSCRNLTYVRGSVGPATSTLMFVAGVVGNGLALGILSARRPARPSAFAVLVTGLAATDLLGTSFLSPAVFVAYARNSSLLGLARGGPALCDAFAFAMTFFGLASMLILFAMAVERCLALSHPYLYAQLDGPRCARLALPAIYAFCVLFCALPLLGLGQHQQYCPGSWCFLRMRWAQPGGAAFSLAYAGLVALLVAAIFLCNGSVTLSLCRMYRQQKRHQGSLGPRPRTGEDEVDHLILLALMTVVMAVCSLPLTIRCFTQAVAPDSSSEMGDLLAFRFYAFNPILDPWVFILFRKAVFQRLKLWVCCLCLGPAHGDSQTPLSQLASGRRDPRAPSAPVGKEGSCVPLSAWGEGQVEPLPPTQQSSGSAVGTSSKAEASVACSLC

[5] = biological target: T2, Prostaglandin D2 receptor (Homo sapiens, UniProt Q13258); test: Activity at DP receptor assessed as inhibition of PGD2-induced cAMP accumulation in platelet; assay type: functional
T2 sequence (Q13258 whole entry): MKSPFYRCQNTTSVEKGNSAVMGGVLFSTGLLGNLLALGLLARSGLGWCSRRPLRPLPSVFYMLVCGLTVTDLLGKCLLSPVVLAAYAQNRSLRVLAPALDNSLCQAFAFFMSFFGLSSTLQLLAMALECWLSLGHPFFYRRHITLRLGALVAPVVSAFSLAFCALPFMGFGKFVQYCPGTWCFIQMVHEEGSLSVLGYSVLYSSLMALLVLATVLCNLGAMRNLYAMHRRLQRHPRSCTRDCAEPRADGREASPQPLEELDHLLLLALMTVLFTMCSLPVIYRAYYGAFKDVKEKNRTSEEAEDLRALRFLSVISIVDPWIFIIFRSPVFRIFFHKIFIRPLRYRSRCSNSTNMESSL

[6] = biological target: T2, Prostaglandin D2 receptor; test: Activity at DP receptor assessed as inhibition of PGD2-induced cAMP accumulation in platelet rich plasma; assay type: functional
[7] = biological target: T2, Prostaglandin D2 receptor; test: Binding affinity to DP receptor
Thromboxane A2 receptor = biological target: T3, Thromboxane A2 receptor (Homo sapiens, UniProt P21731); test: Binding affinity to TP receptor
T3 sequence (P21731 whole entry): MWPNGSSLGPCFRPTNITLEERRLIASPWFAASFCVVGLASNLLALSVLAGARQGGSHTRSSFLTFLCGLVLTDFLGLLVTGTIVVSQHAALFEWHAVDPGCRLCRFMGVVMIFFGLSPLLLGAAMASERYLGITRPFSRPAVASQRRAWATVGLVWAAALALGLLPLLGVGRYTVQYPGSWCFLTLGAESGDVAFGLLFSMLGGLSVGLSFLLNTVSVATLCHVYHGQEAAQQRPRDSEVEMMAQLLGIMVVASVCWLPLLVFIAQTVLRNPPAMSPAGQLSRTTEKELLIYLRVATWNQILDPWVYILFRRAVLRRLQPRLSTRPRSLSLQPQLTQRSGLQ

[8] = biological target: T4, Prostaglandin E2 receptor EP1 subtype (Homo sapiens, UniProt P34995); test: Binding affinity to EP1 receptor
T4 sequence (P34995 whole entry): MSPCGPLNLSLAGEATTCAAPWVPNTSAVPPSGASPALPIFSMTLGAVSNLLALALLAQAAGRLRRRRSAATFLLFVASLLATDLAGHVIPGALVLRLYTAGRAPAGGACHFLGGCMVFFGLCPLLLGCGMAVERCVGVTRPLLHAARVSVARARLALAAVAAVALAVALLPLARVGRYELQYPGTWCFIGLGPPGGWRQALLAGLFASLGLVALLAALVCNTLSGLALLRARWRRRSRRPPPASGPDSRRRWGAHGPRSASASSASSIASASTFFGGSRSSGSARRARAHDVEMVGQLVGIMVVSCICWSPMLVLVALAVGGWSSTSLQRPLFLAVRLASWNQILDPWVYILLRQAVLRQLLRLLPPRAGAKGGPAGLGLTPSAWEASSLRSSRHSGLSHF

Prostaglandin E2 receptor EP2 subtype, sequence (P43116 whole entry): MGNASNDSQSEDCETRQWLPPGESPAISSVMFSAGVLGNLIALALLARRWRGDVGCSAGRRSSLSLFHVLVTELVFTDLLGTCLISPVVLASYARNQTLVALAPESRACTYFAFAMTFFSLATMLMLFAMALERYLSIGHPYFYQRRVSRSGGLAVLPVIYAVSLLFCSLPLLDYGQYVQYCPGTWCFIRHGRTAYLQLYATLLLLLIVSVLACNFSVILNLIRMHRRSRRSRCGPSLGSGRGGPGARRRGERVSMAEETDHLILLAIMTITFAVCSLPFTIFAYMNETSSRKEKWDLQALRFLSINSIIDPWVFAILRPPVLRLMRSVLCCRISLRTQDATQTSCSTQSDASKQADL

CC(=O)c1cc(S(C)(=O)=O)cc2c3c(n(Cc4ccc(Cl)cc4)c12)[C@@H](CC(=O)O)CC3
Ki [1]: 230 nM
Ki [2]: > 20000 nM
Ki [3]: > 20000 nM
Ki [4]: > 20000 nM
Ki (Prostacyclin receptor): > 20000 nM
IC50 [5]: 2 nM
IC50 [6]: 7.9 nM
Ki [7]: 2.6 nM
Ki (Thromboxane A2 receptor): 1200 nM
Ki [8]: > 20000 nM

CC(O)c1cc(S(C)(=O)=O)cc2c3c(n(Cc4ccc(Cl)cc4)c12)C(CC(=O)O)CC3 (stereo not drawn)
Ki [7]: 8.5 nM
Ki (Thromboxane A2 receptor): 16000 nM

CC(=O)c1cc(S(C)(=O)=O)cc2c3c(n(Cc4ccc(Cl)cc4)c12)C(CC(=O)O)CC3 (stereo not drawn)
Ki [7]: 9.5 nM
Ki (Thromboxane A2 receptor): 3600 nM

O=Cc1cccc2c3c(n(Cc4ccc(Cl)cc4)c12)C(CC(=O)O)CCC3 (stereo not drawn)
Ki [7]: 6.3 nM
Ki (Thromboxane A2 receptor): 6.6 nM

CN(C)S(=O)(=O)c1cc(Br)c2c(c1)c1c(n2Cc2ccc(Cl)cc2)C(CC(=O)O)CC1 (stereo not drawn)
Ki [7]: 4.1 nM
Ki (Thromboxane A2 receptor): 100 nM

CS(=O)(=O)c1cc(Br)c2c(c1)c1c(n2Cc2ccc(Cl)cc2)C(CC(=O)O)CC1 (stereo not drawn)
Ki [7]: 1.7 nM
Ki (Thromboxane A2 receptor): 200 nM

CC(O)c1cc(S(C)(=O)=O)cc2c3c(n(Cc4ccc(Cl)cc4)c12)[C@@H](CC(=O)O)CC3 (stereo partly drawn)
Ki [1]: 390 nM
Ki [2]: > 20000 nM
Ki [3]: > 2900 nM
Ki [4]: > 20000 nM
Ki (Prostacyclin receptor): > 20000 nM
IC50 [5]: 2 nM
IC50 [6]: 8.6 nM
Ki [7]: 1.8 nM
Ki (Thromboxane A2 receptor): 7100 nM
Ki [8]: > 20000 nM

CS(=O)(=O)c1cccc2c3c(n(Cc4ccc(Cl)cc4)c12)C(CC(=O)O)CCC3 (stereo not drawn)
Ki [7]: 1.9 nM
Ki (Thromboxane A2 receptor): 5.1 nM

C[S+]([O-])c1cccc2c3c(n(Cc4ccc(Cl)cc4)c12)[C@@H](CC(=O)O)CCC3 (single isomer, unassigned; 17)
Ki [7]: 1.8 nM
Ki (Thromboxane A2 receptor): 47 nM

C[S+]([O-])c1cccc2c3c(n(Cc4ccc(Cl)cc4)c12)C(CC(=O)O)CCC3 (stereo not drawn)
Ki [7]: 2.8 nM
Ki (Thromboxane A2 receptor): 172 nM

O=C(O)CC1CCCc2c1n(Cc1ccc(Cl)cc1)c1ccccc21 (stereo not drawn)
Ki [7]: 36 nM
Ki (Thromboxane A2 receptor): 2.4 nM

CC(C)[S+]([O-])c1cccc2c3c(n(Cc4ccc(Cl)cc4)c12)C(CC(=O)O)CCC3 (stereo not drawn)
Ki [7]: 23 nM
Ki (Thromboxane A2 receptor): 1800 nM

C[S+]([O-])c1cccc2c3c(n(Cc4ccc(Cl)cc4)c12)[C@@H](CC(=O)O)CCC3 (single isomer, unassigned; 16)
Ki (Thromboxane A2 receptor): 130 nM

CS(=O)(=O)c1cc(Br)c2c(c1)c1c(n2Cc2cccc(Cl)c2)C(CC(=O)O)CC1 (stereo not drawn)
Ki [7]: 3.5 nM
Ki (Thromboxane A2 receptor): 760 nM

CS(=O)(=O)c1ccc(Cn2c3c(c4cc(S(C)(=O)=O)cc(Br)c42)CCC3CC(=O)O)cc1 (stereo not drawn)
Ki [7]: 1900 nM
Ki (Thromboxane A2 receptor): 2700 nM

CN(C)C(=O)c1cccc2c3c(n(Cc4ccc(Cl)cc4)c12)C(CC(=O)O)CCC3 (stereo not drawn)
Ki [7]: 28 nM
Ki (Thromboxane A2 receptor): 3700 nM

CC(C)(C)c1ccc(Cn2c3c(c4cc(S(C)(=O)=O)cc(Br)c42)CCC3CC(=O)O)cc1 (stereo not drawn)
Ki [7]: 7.5 nM
Ki (Thromboxane A2 receptor): 820 nM

O=C(O)CC1CCCc2c1n(Cc1ccc(Cl)cc1)c1c([S+]([O-])c3ccccc3)cccc21 (stereo not drawn)
Ki [7]: 29 nM
Ki (Thromboxane A2 receptor): 96 nM

CS(=O)(=O)c1cc(Br)c2c(c1)c1c(n2Cc2ccc3ccc(Cl)cc3n2)C(CC(=O)O)CC1 (stereo not drawn)
Ki [7]: 1 nM
Ki (Thromboxane A2 receptor): 180 nM

C=Cc1cc(S(C)(=O)=O)cc2c3c(n(Cc4ccc(Cl)cc4)c12)C(CC(=O)O)CC3 (stereo not drawn)
Ki [7]: 3.6 nM
Ki (Thromboxane A2 receptor): 520 nM

CS(=O)(=O)c1ccc2c(c1)c1c(n2Cc2ccc(Cl)cc2)C(CC(=O)O)CC1 (stereo not drawn)
Ki [7]: 300 nM
Ki (Thromboxane A2 receptor): 2100 nM

CN(C)S(=O)(=O)c1ccc2c(c1)c1c(n2Cc2ccc(Cl)cc2)C(CC(=O)O)CC1 (stereo not drawn)
Ki [7]: 1100 nM
Ki (Thromboxane A2 receptor): 2300 nM

CC[S+]([O-])c1cccc2c3c(n(Cc4ccc(Cl)cc4)c12)C(CC(=O)O)CCC3 (stereo not drawn)
Ki [7]: 4 nM
Ki (Thromboxane A2 receptor): 340 nM

CSc1cccc2c3c(n(Cc4ccc(Cl)cc4)c12)C(CC(=O)O)CCC3 (stereo not drawn)
Ki [7]: 1 nM
Ki (Thromboxane A2 receptor): 2.6 nM

O=C(O)CC1CCCc2c1n(Cc1ccc(Cl)cc1)c1c([S+]([O-])Cc3ccccc3)cccc21 (stereo not drawn)
Ki [7]: 3.9 nM
Ki (Thromboxane A2 receptor): 140 nM

O=C(O)CC1CCCc2c1n(Cc1ccc(Cl)cc1)c1c(CO)cccc21 (stereo not drawn)
Ki [7]: 16 nM
Ki (Thromboxane A2 receptor): 7.8 nM

CS(=O)(=O)c1cc(-c2cccs2)c2c(c1)c1c(n2Cc2ccc(Cl)cc2)C(CC(=O)O)CC1 (stereo not drawn)
Ki [7]: 4.5 nM
Ki (Thromboxane A2 receptor): 730 nM

CS(=O)(=O)c1cc(Br)c2c(c1)c1c(n2Cc2ccc3sc(Cl)c(Cl)c3n2)C(CC(=O)O)CC1 (stereo not drawn)
Ki [7]: 4.4 nM
Ki (Thromboxane A2 receptor): 220 nM

O=C(O)CC1CCCc2c1n(Cc1ccc(Cl)cc1)c1c(Br)cccc21 (stereo not drawn)
Ki [7]: 2.6 nM
Ki (Thromboxane A2 receptor): 2.2 nM

CS(=O)(=O)c1cc(C#N)c2c(c1)c1c(n2Cc2ccc(Cl)cc2)C(CC(=O)O)CC1 (stereo not drawn)
Ki [7]: 9.7 nM
Ki (Thromboxane A2 receptor): 1100 nM

CS(=O)(=O)c1ccc2c(c1)c1c(n2Cc2ccc(Cl)cc2)C(CC(=O)O)CCC1 (stereo not drawn)
Ki [7]: 80 nM
Ki (Thromboxane A2 receptor): 990 nM

CS(=O)(=O)c1cc(C2CCCCC2)c2c(c1)c1c(n2Cc2ccc(Cl)cc2)C(CC(=O)O)CC1 (stereo not drawn)
Ki [7]: 2.8 nM
Ki (Thromboxane A2 receptor): 330 nM

CC(C)c1cccc2c3c(n(Cc4ccc(Cl)cc4)c12)C(CC(=O)O)CCC3 (stereo not drawn)
Ki [7]: 1.7 nM
Ki (Thromboxane A2 receptor): 9.1 nM

CS(=O)(=O)c1cc(Br)c2c(c1)c1c(n2Cc2cccc(OC(F)(F)F)c2)C(CC(=O)O)CC1 (stereo not drawn)
Ki [7]: 4.1 nM
Ki (Thromboxane A2 receptor): 260 nM

O=C(O)CC1CCCc2c1n(Cc1ccc(Cl)cc1)c1c(F)cc(F)cc21 (stereo not drawn)
Ki [1]: > 4600 nM
Ki [2]: > 300 nM
Ki [3]: > 2900 nM
Ki [4]: > 20000 nM
Ki (Prostacyclin receptor): > 2000 nM
Ki [7]: 11 nM
Ki (Thromboxane A2 receptor): 1.7 nM
Ki [8]: > 7000 nM

O=C(O)CC1CCCc2c1n(Cc1ccc(Cl)cc1)c1c(C(=O)Nc3ccccc3)cccc21 (stereo not drawn)
Ki [7]: 110 nM
Ki (Thromboxane A2 receptor): 88 nM
